Consider 3 compounds from article PMC7773174 (Tetrahedron letters, 2020).

Values after ≈ are worked out from the molar mass of the structure shown.

As a reminder, the MIC is the lowest concentration that inhibits growth of the organism.

One series relates to MRSA. The conditions noted are these: cited from earlier work.
Series [1] concerns MSSA (Staphylococcus aureus SH1000). Briefly: MIC, broth dilution antimicrobial susceptibility. The class given is cell-based. To be noted: S. aureus SH1000; highest value of three independent trials. (Broth dilution looks for growth in wells or tubes with falling amounts of substance.)
Series [2] has as its system red blood cell (RBC), mechanically defibrillated sheep's blood. The class given is cell-based.
Series [3] concerns Enterococcus faecalis (OG1RF). Nature of the series: MIC, broth dilution antimicrobial susceptibility. It is filed as cell-based. To be noted: highest value of three independent trials.
Series [4] deals with Escherichia coli (MC4100). Nature of the series: MIC, broth dilution antimicrobial susceptibility. To be noted: highest value of three independent trials. The class given is cell-based.
For series [5], the system named is HA-MRSA (Staphylococcus aureus ATCC 33591). Nature of the series: MIC, broth dilution antimicrobial susceptibility. The class given is cell-based. To be noted: S. aureus ATCC 33591; highest value of three independent trials.
The test system of series [6] is CA-MRSA (Staphylococcus aureus USA 300-0114). Nature of the series: MIC, broth dilution antimicrobial susceptibility. The class given is cell-based. The conditions noted are these: S. aureus USA 300-0114; highest value of three independent trials.
Series [7] has as its system Pseudomonas aeruginosa (PAO1). Nature of the series: MIC, broth dilution antimicrobial susceptibility. The class given is cell-based. The conditions noted are these: highest value of three independent trials.
The nature of series [8]: Partition coefficient by extraction with n-octanol and deionized water. It is filed as physicochemical.
Another series in a line: Solubility within serum. It is filed as physicochemical. The conditions noted are these: preliminary analysis.
The subject of series [9] is plasma binding proteins, namely retinoid binding proteins. Briefly: Binding to plasma binding proteins. The class given is in vitro ADME. The conditions noted are these: unpublished data.

`O=C(O)c1ccc2cc(-c3ccc(O)c(C45CC6CC(CC(C6)C4)C5)c3)ccc2c1` [Compound 1, CD437, reference compound]: in the series with MRSA (ref [5]), the “minimum inhibitory concentration (MIC)” value was 1 µg/mL (≈ 2.51 µM).
Regarding “benzalkonium chloride [BAC, reference compound]”, the “Minimum Inhibitory Concentration MSSA” value in [1] came to 2 µM. Also, in [2], the Lysis20 came to 32 µM. In addition, the “Minimum Inhibitory Concentration E. faecalis” value in series [3] came to 125 µM. Further, the “Minimum Inhibitory Concentration E. coli” value in series [4] was 32 µM. Also, the “Minimum Inhibitory Concentration HA-MRSA” value in [5] is 4 µM. In addition, in series [6], the “Minimum Inhibitory Concentration CA-MRSA” value turned out to be 4 µM. For the same compound, the “Minimum Inhibitory Concentration P. aeruginosa” value in series [7] turned out to be 125 µM.
Turning to `OCc1ccc2cc(-c3ccc(O)c(C45CC6CC(CC(C6)C4)C5)c3)ccc2c1` [Compound 2], the “Minimum Inhibitory Concentration MSSA” value in series [1] is 2 µM. This compound showed a Lysis20 in [2] of 125 µM. Also, the “P (partition coefficient)” value in [8] (average over 3 independent trials) amounted to 9.16. This compound displayed a logP in series [8] (triplicate, ± standard deviation) of 0.93 ± 0.20. Besides, the solubility within serum entry in “Solubility within serum” is given as “low solubility”. Further, the “Minimum Inhibitory Concentration E. faecalis” value in series [3] was over 250 µM. Further, the “binding to plasma binding proteins” value in [9] is “high levels of binding”. Moreover, in the series with MRSA (ref [6]–[7]), the MIC was 2 µg/mL (≈ 5.2 µM). Moreover, the “Minimum Inhibitory Concentration E. coli” value in series [4] was over 250 µM. The “Minimum Inhibitory Concentration HA-MRSA” value in [5] was determined as 2 µM. In addition, the “Minimum Inhibitory Concentration CA-MRSA” value in series [6] was determined as 2 µM. The “Minimum Inhibitory Concentration P. aeruginosa” value in [7] is over 250 µM.
